Data set [1] is described as follows: Loading of taxanes onto PLGA TIPS microspheres via antisolvent precipitation (drug loading efficiency, UV 229 nm). In kind it is physicochemical. As to conditions: for taxane loaded onto the microspheres from the solution: 0.1% (w/v) pure taxane in ethanol, 5 mg dry PLGA TIPS microspheres, within 60 minutes of initiating mixing. The protocol: A facile method was developed to load DTX and other taxanes such as paclitaxel and cabazitaxel onto TIPS microspheres via antisolvent precipitation (FIG. 1). 5 mg of PLGA TIPS microspheres were transferred into 20 ml clear Type 1B boroscilicate glass vials and sealed with a butyl injection stopper. 4.5 mL of ultrapure water was added to the vial and vortexed for 10 seconds. 0.5 ml of 0.1% (w/v) taxane in ethanol, or a formulation of docetaxel or paclitaxel matching Taxotere® or Taxol® was added using a 1 mL syringe with a 25G needle through the rubber stopper, when the vial was inverted. The vial was then vortexed for 10 seconds and placed on a roller mixer (IKA® Roller 6 Digital; 60 rpm) at room temperature for predetermined periods (5, 15, 30, 60, 120 minutes).
Drug loading efficiency (DLE) of the taxane, such as DTX, onto the TIPS microspheres at each time-point was calculated according to Equation 1. The amount of free taxane left in the solution was measured by UV spectroscopy at the wavelength of 229 nm using a Nanodrop 2000c spectrophotometer (Thermo Scientific, Waltham, MA, USA).
• 1. Dry TIPS PLGA microspheres (size range of 250-350 μm): Docetaxel loaded onto 5 mg PLGA TIPS microspheres as described directly above. […] An equivalent number of solid PLGA microspheres (size range of 250-350 μm) to the quantity of microspheres in 5 mg of dry TIPS PLGA microspheres were transferred into 20 ml clear Type 1B boroscilicate glass vials and sealed with a butyl injection stopper. […] Drug loading efficiency (DLE) of docetaxel (DTX) onto the TIPS microspheres at each time-point was calculated according to Equation 1. The amount of free docetaxel left in the solution was measured by UV spectroscopy at the wavelength of 229 nm using a Nanodrop 2000c spectrophotometer (Thermo Scientific, Waltham, MA, USA). […]

In another data set the test system is PC3 xenograft tumour. Kind of data set: In vivo tumour growth inhibitory activity, PC3 xenograft. Set-up: species or system NSG immunodeficient mice. The protocol:
Female NSG™ immunodeficient mice (NOD.Cg-PrkdscidIl2rgtm1Wjl/SzJ; Charles River), aged 6-7 weeks and 18-20 g in body weight, were acclimatised for 1 week prior to injection of tumour cells. PC3 cells (5.0×10^6 cells in 100 μl phosphate buffered saline [PBS]) were injected subcutaneously into the right flank of each mouse. The dimensions of tumour were measured three times per week using digital callipers and the tumour volume calculated using the following formula: […]

In another data set the test system is PC3 cells. Kind of data set: Colony formation assay with perfusate from DTX-TIPS microspheres. The note with it: DTX released into perfusate during the first 5 days. In kind it is cell-based, human. As to the method: PC3 cells were maintained in Ham's F12-K medium (Kaighn's modification) (Invitrogen, 21127-022) supplemented with 10% (v/v) foetal bovine serum (FBS) and 1% antibiotics (referred to henceforth as complete medium). Cells were cultured at 37° C. under 5% CO2 atmosphere in a humidified incubator.
PC3 cells cultured in 6 well plates were incubated for 48 hours in 2 ml of perfusate (conditioned complete culture medium) collected from DTX-TIPS microspheres loaded into the perfusion system, as outlined above. Colony formation assays were performed as previously described (Franken NAP, Rodermond HM, Stap J, Haveman J, van Bree C. Clonogenic assay of cells in vitro. Nat Protoc. 2006; 1(5):2315-2319). […] The colonies were counted in ImageJ using the ‘Colony Counter’ plug in (processing parameters: size 100-30,000; circularity 0.5-1) (https://imagej.nih.gov/ij/plugins/colony-counter.html).
Plating efficiency (PE) was estimated by dividing the number of colonies counted by the number of cells initially seeded. […]

The nature of data set [2]: DTX concentration in tissues from explanted organs (LC-MS/MS). In kind it is in vivo, NSG mice. As to conditions: NSG, mouse, intravenous, 10 mg/kg; for concentration at 1 day: day 1 post-administration; for concentration at 10 day: day 10 post-administration; for concentration at 35 day: day 35 post-administration. The protocol: At the end of the in-life phase (day 1, 10 and 35 post-treatment) the mice were euthanised by overdose of CO2, followed by cervical dislocation and organs (heart, liver, kidneys, lungs and spleen) were collected, weighed and immediately frozen in liquid nitrogen before storage at −80° C. until further analysis. Evaluation of docetaxel concentrations was carried out by liquid chromatography tandem mass spectrometry in tissue following homogenisation in 3 ml/g (spleens 5 ml/g) 10 mM PBS using a Precellys 24 homogeniser (Bertin technologies, Montigny-le-Bretonneux, France). 45 μl tissue homogenate was spiked with 5 μl DMSO, samples were mixed and protein precipitated with 150 μl acetonitrile containing DTX-D9 as internal standard (25 nM). Samples were mixed and centrifuged. Supernatant was taken and diluted 40:60 with 0.5% sodium acetate (20 μM) in ammonium acetate (10 mM, pH 5). Blanks, calibration curve and QCs were prepared as above using tissues obtained from the same strain of mice (NSG) and spiked with DMSO, working calibration standard and working QC respectively. Blanks consisted of protein precipitated with acetonitrile alone, blank+, standards and QCs were protein precipitated with acetonitrile containing DTX-D9.

Data set [3] can be described thus: Measurement of DTX in plasma after administration (LC-MS/MS). In kind it is in vivo, BALB/cAnNCrl mice. The protocol:
Docetaxel-loaded TIPS microspheres were prepared via anti-solvent precipitation, as outlined above. […] For measurement of circulating DTX in plasma, blood samples were collected via the tail vein at day 0 (pre-dose), and days 1, 2, 3, 7, 10 then every 5 days until day 35 immediately before the end of in life phase. Blood samples were collected into 10 μl capillaries containing sodium heparin (Hirschmann, Eberstadt, Germany) and placed in wells of a 2 ml deep well plate that was stored at −80° C. until extraction.
On the day of the extraction, calibration curve and sample plates were thawed. 125 μl of water:acetonitrile containing 0.4% […] was added to blanks, calibration curve and QCs. 125 μl of 70:30 water:acetonitrile containing 0.4% DMSO was added to all samples. 40 μl of each […]:water:acetonitrile sample was taken and protein precipitated with 120 μl acetonitrile containing DTX-D9 (25 nM). Samples were mixed and centrifuged. Supernatant was taken and diluted 40:60 with 0.5% sodium acetate (20 μM) in ammonium acetate (10 mM, pH5).
Liquid chromatography-mass spectrometry analysis was carried out with a Waters (Milford, MA) H-class Acquity solvent manager and sample manager on a Waters Acquity HSS PFP column (1.8 μm, 50 mm×2.1 mm id) with a gradient consisting of 10 mM ammonium acetate (pH 5.0) and acetonitrile mobile phases. The flow rate was 0.6 ml/min and the run time 5.6 minutes. Analyte and internal standard were ionised using electrospray ionisation in positive ion mode. Detection of analytes was via tandem mass spectrometry (MS/MS) using a Waters Xevo TQ-S mass spectrometer in the multiple reaction monitoring (MRM) mode. For DTX and DTX-D9 (IS), the transitions m/z 830.4-248.1/304.2 and m/z 839.4-313.0 were monitored respectively. The calibration curve was linear over the concentration range […].

Data set [4] can be described thus: Docetaxel release from DTX-TIPS microspheres in dynamic perfusion system. The note with it: PBS pH 7.4, 37 C, 0.01 mL/min; over 5 days. In kind it is physicochemical. As to the method:
Release profile of DTX from the TIPS microspheres was investigated using a dynamic perfusion system to simulate tissue perfusion of the drug-device combination in the physiological milieu when used in clinic following radical prostatectomy. Thus, the perfusion system was placed inside an incubator at 37° C. and physiological simulated medium (phosphate buffed saline (PBS); pH 7.4) was used as perfusate. DTX-loaded microspheres were mixed with 100 μl of 70% (v/v) GranuGel® (Convatec, UK) diluted in ultrapure water and the mixture was placed between two 25 mm circular filter papers (Whatman® qualitative cellulose filter paper, Grade 1), where their positions were held by a Swin-Lok™ plastic membrane filter holder. A hypodermic needle (18G×40 mm) connecting the outlet of the filter holder, was inserted through the lid of a 50 ml polypropylene container to collect the perfusate. PBS was pumped through the filter holder by a peristaltic pump (Harvard Apparatus) at a flow rate of 0.01 mL/min. […]
The amount of DTX released in the perfusate was determined using a predetermined standard curve. At each measurement, the concentration of DTX in the release medium collected in the polypropylene container was determined by UV spectroscopy at 229 nm as described above, to calculate the cumulative DTX release according to Equation 2.

On to `CO[C@H]1C(=O)[C@]2(C)[C@@H](OC)C[C@H]3OC[C@@]3(OC(C)=O)[C@H]2[C@H](OC(=O)c2ccccc2)[C@]2(O)C[C@H](OC(=O)[C@H](O)[C@@H](NC(=O)OC(C)(C)C)c3ccccc3)C(C)=C1C2(C)C` [cabazitaxel], for which the “taxane loaded onto the microspheres from the solution” value in data set [1] is on record as “about 60%”.
Turning to `CC(=O)O[C@@]12CO[C@@H]1C[C@H](O)[C@@]1(C)C(=O)[C@H](O)C3=C(C)[C@@H](OC(=O)[C@H](O)[C@@H](NC(=O)OC(C)(C)C)c4ccccc4)C[C@@](O)([C@@H](OC(=O)c4ccccc4)[C@H]21)C3(C)C` [docetaxel, Docetaxel], the “tumour volume over the study period” value with PC3 xenograft tumour (Example 8, compared with saline or control microsphere group) is “Tumour growth inhibition was most apparent”. The “tumour volume / tumour growth inhibition” value with PC3 xenograft tumour (Example 9, DTX-TIPS compared with I.V. DTX, until day 21) was “did not increase”. Moreover, the “toxicity against the PC3 cells in the colony forming assay” value with PC3 cells came to 100%. Moreover, the concentration at 1 day in data set [2] (Heart) is 340 ± 42.9 nM; in data set [2] (Kidney), 115 ± 22.4 nM; in data set [2] (Liver) it was 87.3 ± 7.85 nM; in data set [2] (Lung) it was 641 ± 92.4 nM; in data set [2] (Spleen), 14.1 ± 11.9 nM. In addition, the concentration at 10 day is 90.1 ± 19.4 nM in data set [2] (Heart); 115 ± 22.4 nM in data set [2] (Kidney); 27 ± 11.9 nM in data set [2] (Liver); 256 ± 35.5 nM in data set [2] (Lung); 35.3 ± 51.9 nM in data set [2] (Spleen). The concentration at 35 day was found to be 0.97 ± 2.37 nM in data set [2] (Heart); 1.17 ± 2.86 nM in data set [2] (Kidney); 0 nM in data set [2] (Liver); 13.8 ± 16.2 nM in data set [2] (Lung); 0 nM in data set [2] (Spleen). Further, the results for the “plasma DTX level, I.V. DTX relative to DTX-TIPS group” value in data set [3] (1 hour post-administration) and in data set [3] (24 hour post-administration) were 102 fold and 8 fold, respectively. Moreover, in data set [3] (48 hours, 72 hours, day 10 and day 15, I.V. 10 mg/kg once weekly for three weeks), the DTX in plasma entry is listed as “detectable levels of DTX remaining in the plasma”. In data set [1], the “taxane loaded onto the microspheres from the solution” value is “Approximately 80%”. Also, the “time of maximum loading onto the TIPS particles” value in data set [1] (room temperature, no heating or cooling steps) was ≤ 60 min. Also, in data set [4], the “cumulative release of total DTX loaded” value was “approximately 95%”.

(Values after US12514931B2, “Microsphere-drug combination” (UCL Business LTD, priority 2019, dated 2026).)
